12 compounds from PubChem BioAssay (NCI) can be followed below.

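A five-concentration, 48-hour dose response in 96-well plates underlies each endpoint, interpolated linearly between surrounding concentrations. GI50 = concentration required for 50% inhibition of growth. TGI: total growth inhibition.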

Test systems include RPMI-8226 leukemia; UO-31 renal; CAKI-1 renal; SF-295 CNS; MOLT-4 leukemia; RXF 393 renal; ACHN renal; HCT-116 colon; A498 renal.
What all share (assay): NCI-60 cell line screen, 48 h

Regarding `COC1OC(COCc2ccc(Cl)cc2)C(OCc2ccc(Cl)cc2)C1O` (stereo not drawn), the TGI with RPMI-8226 leukemia is above 100 µM; with UO-31 renal, 29.4 µM; in the assay on CAKI-1 renal, 54.2 µM; in the assay with SF-295 CNS it was 32.3 µM; with MOLT-4 leukemia, 66.6 µM; with RXF 393 renal, 29.1 µM. Besides, the TGI in the assay on ACHN renal is 40.2 µM.

On to `COC(=O)C1C(=O)O[C@@H](c2ccc(OC)cc2)C1C(=O)OC` (stereo partly drawn), for which the TGI in the assay with RPMI-8226 leukemia, in the assay with UO-31 renal, in the assay on CAKI-1 renal, with SF-295 CNS, in the assay with MOLT-4 leukemia and with RXF 393 renal was above 100 µM in each case. Further, the TGI with ACHN renal, in the assay on HCT-116 colon and in the assay with A498 renal was above 100 µM in each case.

In the case of `c1ccc2c(c1)nnn1c3cnccc3nc21`, the TGI in the assay on RPMI-8226 leukemia is 58.8 µM; with UO-31 renal it was above 100 µM; with CAKI-1 renal it was above 100 µM; with SF-295 CNS, above 100 µM; in the assay with MOLT-4 leukemia, 54.9 µM; in the assay with RXF 393 renal, 66.3 µM. Also, the TGI with ACHN renal, with HCT-116 colon and in the assay on A498 renal was above 100 µM in each case.

Regarding `CCCCN(CCCC)c1cc(C(=O)CCCCCN)c2ccccc2n1`, the GI50 in the assay on RPMI-8226 leukemia was 2.95 µM; in the assay on UO-31 renal, 1.85 µM; with CAKI-1 renal, 1.86 µM; in the assay on SF-295 CNS, 1.86 µM; in the assay with MOLT-4 leukemia, 2.54 µM; in the assay with RXF 393 renal, 1.53 µM. The GI50 in the assay on ACHN renal is 1.76 µM; in the assay with HCT-116 colon, 1.78 µM; in the assay with A498 renal it was 2.85 µM. In addition, the TGI in the assay on RPMI-8226 leukemia turned out to be 6.53 µM; in the assay with UO-31 renal, 3.68 µM; with CAKI-1 renal, 4.38 µM; in the assay with SF-295 CNS it was 3.85 µM; in the assay on MOLT-4 leukemia, 5.47 µM; in the assay on RXF 393 renal, 2.89 µM. Also, the values for the TGI in the assay with ACHN renal, in the assay on HCT-116 colon and with A498 renal were 3.14 µM, 3.16 µM and 19.2 µM, respectively.

For the compound `CCCCCCCCC(=O)CCCCCCCCC(=O)O`, the TGI with RPMI-8226 leukemia is 51.2 µM; with UO-31 renal it was 84.7 µM; in the assay with CAKI-1 renal, above 100 µM; in the assay with SF-295 CNS it was above 100 µM; in the assay on MOLT-4 leukemia, 40.2 µM; in the assay on RXF 393 renal, 67.1 µM. In addition, the results for the TGI in the assay with ACHN renal, in the assay on HCT-116 colon and with A498 renal were 59.8 µM, 51 µM and 47.8 µM, respectively.

In the case of `O=C(Nc1cccc(-n2cc(-c3ccncc3)c(-c3cc(O)cc(Cl)c3)n2)c1)Nc1ccc(Cl)c(Cl)c1`, the GI50 in the assay on RPMI-8226 leukemia was 1.44 µM; in the assay with UO-31 renal, 1.91 µM; with CAKI-1 renal it was 2.21 µM; in the assay on SF-295 CNS, 1.7 µM; in the assay on MOLT-4 leukemia, 1.43 µM; in the assay with RXF 393 renal, 0.555 µM. Also, the GI50 is 2.21 µM in the assay on ACHN renal, 1.74 µM in the assay with HCT-116 colon and 2.09 µM with A498 renal. The TGI in the assay with RPMI-8226 leukemia came to 4.3 µM; in the assay with UO-31 renal, 6.51 µM; in the assay with CAKI-1 renal it was 7.01 µM; with SF-295 CNS it was 4.6 µM; with MOLT-4 leukemia, 5.16 µM; in the assay on RXF 393 renal, 2.46 µM. For the same compound, the TGI in the assay on ACHN renal was determined as 8.71 µM; with HCT-116 colon it was 4.1 µM; in the assay on A498 renal, 9.06 µM.

Consider `S=C1CNC(=S)CN1`, for which the TGI with RPMI-8226 leukemia, with UO-31 renal, with CAKI-1 renal, in the assay on SF-295 CNS, in the assay on MOLT-4 leukemia and in the assay with RXF 393 renal was above 100 µM throughout. Further, the TGI in the assay with ACHN renal, in the assay on HCT-116 colon and in the assay with A498 renal was above 100 µM each time.

For the compound `Cc1ccc(NC(=O)C2C(=O)C(=O)N(c3ccc(C)cc3)C2=O)cc1` (stereo not drawn), the TGI in the assay with UO-31 renal, in the assay on SF-295 CNS, in the assay on MOLT-4 leukemia, in the assay on RXF 393 renal, with ACHN renal and in the assay with HCT-116 colon was above 100 µM throughout. This compound also had a TGI in the assay on A498 renal above 100 µM.

With `CCC[CH2][Sn]([CH2]CCC)([O]C(=O)c1cc(OC)c(OC)c(OC)c1)[O]C(=O)c1cc(OC)c(OC)c(OC)c1`, the GI50 with RPMI-8226 leukemia is 0.445 µM; in the assay with UO-31 renal, 1.33 µM; in the assay with CAKI-1 renal it was 0.3 µM; with SF-295 CNS it was 1.6 µM; in the assay on MOLT-4 leukemia, 0.505 µM; with RXF 393 renal, 0.297 µM. Besides, the GI50 is 1.59 µM in the assay with ACHN renal, 1.37 µM with HCT-116 colon and 1.17 µM in the assay on A498 renal. Besides, the TGI in the assay on RPMI-8226 leukemia came to 4.5 µM; in the assay with UO-31 renal, 2.61 µM; with CAKI-1 renal, 1.31 µM; in the assay on SF-295 CNS, 3.19 µM; with MOLT-4 leukemia, 4.11 µM; in the assay with RXF 393 renal, 1.12 µM. Also, the TGI in the assay with ACHN renal came out at 2.98 µM; with HCT-116 colon, 2.66 µM; in the assay on A498 renal it was 3.02 µM.

As for `Cc1cc(=O)[nH]c(CNC(=O)c2cccc3ccccc23)n1`, the TGI in the assay on UO-31 renal, with CAKI-1 renal, with SF-295 CNS, with MOLT-4 leukemia, in the assay with RXF 393 renal and in the assay with ACHN renal was above 100 µM in each case. The TGI in the assay on HCT-116 colon and with A498 renal was above 100 µM in each case.

For the compound `COC(=O)C(=C\Sc1ccccc1)/C=C/C(=O)OC(C)(C)C`, the TGI in the assay with RPMI-8226 leukemia came to 8.48 µM; in the assay with UO-31 renal, 29.5 µM; with CAKI-1 renal, 12.1 µM; in the assay on SF-295 CNS, 34.3 µM; in the assay on MOLT-4 leukemia, 9.44 µM; in the assay with RXF 393 renal, 7.7 µM. The results for the TGI with ACHN renal and with HCT-116 colon were 17.2 µM and 21.9 µM, respectively.

Take `O=C1OCC2=C1C(c1cccc([N+](=O)[O-])c1)c1cc3c(cc1N2CCO)CCC3` (stereo not drawn): the GI50 with RPMI-8226 leukemia is 0.25 µM; in the assay with UO-31 renal, 0.269 µM; in the assay with CAKI-1 renal, 0.083 µM; in the assay on SF-295 CNS, 0.0789 µM; in the assay on MOLT-4 leukemia, 0.254 µM; in the assay on RXF 393 renal, 0.123 µM. In addition, the GI50 was 0.398 µM with ACHN renal, 0.148 µM in the assay with HCT-116 colon and 0.0684 µM with A498 renal. Further, the TGI in the assay with RPMI-8226 leukemia is above 39 µM; in the assay with UO-31 renal, above 34.3 µM; with CAKI-1 renal it was above 38 µM; in the assay with SF-295 CNS it was 16.4 µM; with MOLT-4 leukemia, 43.3 µM; in the assay on RXF 393 renal, above 50 µM. For the same compound, the TGI is above 50 µM in the assay on ACHN renal, 16 µM with HCT-116 colon and 0.376 µM with A498 renal.
